Results from PubChem BioAssay (NCI).
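Test compounds were applied to cells in 96-well plates for 48 hours at 5 doses. TGI is the concentration that stops growth completely.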

How the values were obtained:
Experiment in all cases: growth of human tumour cells (NCI), 48 h
UACC-257 melanoma = tested on: UACC-257 melanoma
CCRF-CEM leukemia = tested on: CCRF-CEM leukemia
OVCAR-5 ovarian = tested on: OVCAR-5 ovarian
OVCAR-4 ovarian = tested on: OVCAR-4 ovarian
HOP-92 NSCLC = tested on: HOP-92 NSCLC
CAKI-1 renal = tested on: CAKI-1 renal
SNB-19 CNS = tested on: SNB-19 CNS
SF-295 CNS = tested on: SF-295 CNS
K-562 leukemia = tested on: K-562 leukemia
SK-MEL-5 melanoma = tested on: SK-MEL-5 melanoma
COLO 205 colon = tested on: COLO 205 colon
SK-MEL-2 melanoma = tested on: SK-MEL-2 melanoma
ACHN renal = tested on: ACHN renal
HS 578T breast = tested on: HS 578T breast
UO-31 renal = tested on: UO-31 renal
MALME-3M melanoma = tested on: MALME-3M melanoma
PC-3 prostate = tested on: PC-3 prostate
MDA-N = tested on: MDA-N
MCF7 breast = tested on: MCF7 breast

Row | SMILES | TGI (UACC-257 melanoma) [µM] | TGI (CCRF-CEM leukemia) [µM] | TGI (OVCAR-5 ovarian) [µM] | TGI (OVCAR-4 ovarian) [µM] | TGI (HOP-92 NSCLC) [µM] | TGI (CAKI-1 renal) [µM] | TGI (SNB-19 CNS) [µM] | TGI (SF-295 CNS) [µM] | TGI (K-562 leukemia) [µM] | TGI (SK-MEL-5 melanoma) [µM] | TGI (COLO 205 colon) [µM] | TGI (SK-MEL-2 melanoma) [µM] | TGI (ACHN renal) [µM] | TGI (HS 578T breast) [µM] | TGI (UO-31 renal) [µM] | TGI (MALME-3M melanoma) [µM] | TGI (PC-3 prostate) [µM] | TGI (MDA-N) [µM] | TGI (MCF7 breast) [µM]
1 | Nc1ccn([C@H]2CO[C@@H](CO)O2)c(=O)n1 | > 100 | > 92 | > 100 | > 100 | 43.8 | 23 | > 100 | > 100 | > 100 | > 100 | > 100 | > 100 | 7.87 | > 100 | > 75.1 | > 100 | > 100 | > 100 | > 100
2 | CC1=Nc2nc3ccccc3n2C(C)(C)C1 | > 100 | > 100 | > 100 | > 100 | > 100 | > 100 | > 100 | > 100 | > 100 | > 100 | > 100 | > 100 | > 100 | > 100 | > 100 | > 100 | > 100 | > 100 | > 100
3 | O=C(CC(=O)N(C(=O)c1ccccc1)c1ccc(Cl)cc1)N/N=C\c1ccccc1O | > 100 | > 100 | > 100 | > 100 | 75 | > 100 | > 100 | 80.9 | > 100 | > 100 | > 100 | > 100 | > 100 | 81.3 | > 100 | > 100 | > 100 | > 100 | > 100
4 | COc1ccc(-c2nc(N)c(C#N)c3c2CCSc2ccc(C)cc2-3)cc1OC | > 76.2 | 23.6 | > 100 | > 93.8 | 55 | > 70.5 | > 83.5 | > 100 | 13.7 | 25.2 | 26.6 | > 75.6 | > 73.9 | 52.9 | 27.2 | > 100 | > 100 | > 45.5 | 63.5
5 | CC1(C)N(OC2CCCCO2)C(c2ccccc2)C(c2ccccc2)=[N+]1[O-] (stereo not given) | > 100 | > 100 | > 100 | > 100 | > 100 | > 100 | > 100 | > 100 | > 100 | > 100 | > 100 | > 100 | > 100 | > 100 | > 100 | > 100 | > 100 | > 100 | > 100
6 | C[C@@H]1CCC2[C@@H](C)[C@H](O[C@H]3O[C@@H]4O[C@@]5(C)CCC6[C@H](C)CCC([C@H]3C)[C@]64OO5)O[C@@H]3O[C@@]4(C)CCC1[C@@]23OO4 (stereo not given in full) | 18.6 | 18.3 | 10.3 | 16.4 | 11.4 | 13.9 | 25.2 | 18.8 | > 100 | 12.8 | 0.326 | 9.69 | 14.2 | 24.2 | 11 | 19.1 | 12.5 | 19.2 | 25.3
7 | CC1=NN(c2nc(N)nc(C(C)Sc3cc(Cl)c(C)cc3S(N)(=O)=O)n2)C(C)(C)C1 (stereo not given) | > 10 | > 10 | > 10 | > 10 | > 10 | > 10 | > 10 | > 10 | > 10 | > 10 | > 10 | > 10 | > 10 | > 10 | > 10 | > 10 | > 10 | > 10 | > 10
8 | COc1c(C(=O)/C(=N/Nc2ccccc2)C(C)=O)c(O)c(OC)c2occc12 | > 100 | > 100 | > 100 | > 100 | 99.6 | > 100 | > 100 | > 100 | > 100 | 31.7 | > 100 | > 100 | > 100 | > 100 | 86.3 | 92 | > 100 | > 100 | > 100
9 | CC(=O)Nc1ccc2c3c(cc(O)c2c1)N(C(=O)CCCC(=O)Nc1ccc2c4c(cc(O)c2c1)N(C(=O)OC(C)(C)C)CC4CCl)CC3CCl (stereo not given) | 3.34 | 0.599 | > 15.4 | 6.4 | > 15.1 | > 50 | > 15 | > 42.9 | > 31.4 | > 11.6 | 6.05 | 1.84 | 31.2 | > 12.1 | > 50 | 2.75 | > 15.6 | 3.34 | > 16.3
10 | Brc1ccccc1/C=C\C1(c2ccccc2)OCCO1 | 34.5 | > 33.2 | 29.5 | 14.8 | 46.9 | 16.3 | 28.9 | 26.4 | > 100 | 29.1 | 37.7 | 44.7 | 21.3 | 17.3 | 20 | 29.9 | 34.1 | 25.3 | 18.1
11 | CN(C)CCSC(=Nc1ccccc1)N1C=COC=C1 | 33.8 | > 100 | > 100 | > 62 | 73.2 | > 100 | > 100 | > 100 | > 100 | 34 | > 72.2 | 32.1 | > 100 | > 100 | > 100 | > 81.8 | 95.5 | 45.4 | 33.9
12 | O=C(O)CN1CCNCCN(CC(=O)O)CCNCC1 | > 100 | > 100 | > 100 | > 100 | > 100 | > 100 | > 100 | > 100 | > 100 | 21.9 | > 36.4 | > 100 | > 100 | > 100 | > 100 | > 100 | > 100 | > 31.6 | > 100
13 | Cc1cc(=O)oc2c(CNC(C)C(=O)O)c(O)ccc12 (stereo not given) | > 100 | > 100 | > 100 | > 100 | > 100 | > 100 | > 100 | > 100 | > 100 | > 100 | > 100 | > 100 | > 100 | > 100 | > 100 | > 100 | > 100 | > 100 | > 100
14 | CCOC(=O)C1=C(OS(=O)(=O)C(F)(F)F)CCCC1 | > 100 | > 100 | > 100 | > 100 | > 100 | > 100 | > 100 | > 100 | > 100 | > 100 | > 100 | > 100 | > 100 | > 100 | > 100 | > 100 | > 100 | > 100 | > 100
15 | O=C1NCC2(CCN(Cc3ccccc3)CC2)N1 | > 100 | > 100 | > 100 | > 100 | > 100 | > 100 | > 100 | > 100 | > 100 | > 100 | > 100 | > 100 | > 100 | > 100 | > 100 | > 100 | > 100 | > 100 | > 100
16 | Oc1ccc2ccccc2c1-c1c(Nc2ccccc2)ccc2ccccc12 | 40.3 | 44.7 | > 50.1 | 25.4 | > 46.5 | 28.1 | 37.4 | 30.5 | 41 | 29 | 38 | 36.3 | 38.8 | 41.1 | 29.2 | 25 | 36.8 | 20.5 | > 42.7
17 | COC(=O)c1cc(C)n2c1CS[C@@H]2c1ccccc1 | > 100 | > 100 | > 100 | > 100 | 76.8 | > 100 | > 100 | > 100 | > 100 | 44.3 | 80 | 91.8 | > 100 | > 100 | > 100 | > 100 | > 100 | > 100 | > 100
18 | CC(C)(C)c1ccc(-c2nc3ccccc3c(=O)o2)cc1 | > 100 | 44.2 | > 100 | > 100 | > 100 | > 100 | > 100 | > 100 | > 100 | 38.2 | 78.7 | 66.6 | > 100 | > 100 | > 100 | > 100 | > 100 | > 100 | 62.2
19 | COc1ccc(-n2nnc3c(C#N)c(-c4ccccc4)c(C)n3c2=O)cc1 | > 100 | 58.5 | > 100 | > 100 | > 100 | > 100 | > 100 | > 100 | > 100 | 48 | > 100 | 83.8 | > 100 | > 100 | > 100 | > 100 | > 100 | > 100 | > 100
20 | Cc1c(C)c(S(=O)(=O)N(CCCCCN)OCCCN)c(C)c2c1OC(C)(C)CC2 | 38.6 | > 23.5 | > 55.2 | 13.3 | 67.6 | > 59.1 | 24.8 | 45.8 | > 59.7 | > 50.4 | > 74.8 | 11.2 | 39 | 28.4 | 41.1 | 28 | 18 | 31.1 | > 100
21 | CSc1c(CC(=O)O)n(Cc2ccccc2)c2ccccc12 | > 100 | > 100 | > 100 | > 100 | > 100 | > 100 | > 100 | > 100 | > 100 | > 100 | > 100 | > 100 | > 100 | > 100 | > 100 | > 100 | > 100 | > 100 | > 100
22 | Cn1c(=O)nc2n(CCO)ccnc-2c1=O | > 100 | > 100 | > 100 | > 100 | > 100 | > 100 | > 100 | > 100 | > 100 | > 100 | > 100 | > 100 | > 100 | > 100 | > 100 | > 100 | > 100 | > 100 | > 100
23 | CC(C)=CCC[C@](C)(O)[C@H]1CC[C@]2(C)[C@@H]1[C@H](O)C[C@@H]1[C@@]3(C)CC[C@H](O[C@@H]4O[C@H](CO)[C@@H](O)[C@H](O)[C@H]4O)C(C)(C)[C@@H]3CC[C@]12C | 41.1 | 43.8 | 49.3 | 38.1 | 33.7 | 34.2 | 35.4 | 39.6 | 38.1 | 32.1 | 37.3 | 29.7 | 32.9 | 47 | 31.1 | 34.6 | 31.9 | 36.3 | 32.2
24 | CC(Oc1ccccc1)C(=O)NN (stereo not given) | > 100 | > 100 | > 100 | > 100 | > 100 | > 100 | > 100 | > 100 | > 100 | > 100 | > 100 | > 100 | > 100 | > 100 | > 100 | > 100 | > 100 | > 100 | > 100
25 | CCc1ccc(CCC(=O)O)nc1 | > 100 | > 100 | > 100 | > 100 | > 100 | > 100 | > 100 | > 100 | > 100 | > 100 | > 100 | > 100 | > 100 | > 100 | > 100 | > 100 | > 100 | > 100 | > 100
